In patent US11903931B2, “Salts of selective estrogen receptor degraders” (InventisBio Co., Ltd., priority 2018, dated 2024):
Counter-ions that a name gives are not always drawn.

Key:
[1] = Meglumine salt form interconversion study (slurry in IPA or water, XRPD); assay type: physicochemical; conditions: for Final crystal form: Water
Method: Interconversion study: Interconversion studies were carried out by mixing the same amount of different form solids in IPA or water, respectively. Suspensions were kept stirring at room temperature and 60° C. for several days, during which suspensions were filtrated and analyzed by XRPD.

[2] = Solubility test in pH 1.2 or pH 6.8 buffer (saturated solutions, HPLC; remaining solids by XRPD); assay type: physicochemical; conditions: for XRPD analysis of remaining solids after solubility test: 24 hours, medium not stated; for XRPD patterns at 24 h: remaining solid
Method: For solubility test: About 20 mg of Compound FA, L-lysine salt and meglumine salt (Form I) were weighed into vials, added 3 mL of pH1.2 or pH 6.8 buffer to make saturated solutions. All suspensions were kept shaking with 200 rpm at room temperature for up to 24 hours. […] At 24 hours, remaining solids were collected and determined by XRPD.

[3] = Solid stability test at 40° C./75% RH for 8 days (HPLC, XRPD); assay type: physicochemical; conditions: for Physical and chemical stability / XRPD patterns after storage: 40° C./75% RH for 8 days; for Purity at 8 days / Purity at 0 day: HPLC; for Purity at 8 days: after 40° C./75% RH for 8 days; for Purity at 0 day: start of stability test
Method: HPLC ANALYSIS: a representative HPLC method is shown below, which can be used, for example, to analyze the purity, solubility, and stability of the salts herein.
For stability test: About 20 mg of Compound FA, L-lysine salt and meglumine salt (Form I) were weighed into vials, and put at the condition of 40° C./75% RH for 8 days. At 0 and 8 days, the solid sample was dissolved using acetonitrile/water (1/1) to make a solution with the concentration of 0.2 mg/mL. Sample solutions were analyzed by HPLC and solid samples were examined by XRPD.

[4] = Solid stability test of Form I at 25° C./92.5% RH for 10 days (XRPD); assay type: physicochemical
Method: Solid stability test of Form I at 92.5% RH for 10 days: About 20 mg of meglumine salt Form I was put into the condition of 25° C./92.5% RH for 10 days. At 10 days, the sample was analyzed by XRPD.

[5] = Physical treatment (grinding) of Form I; assay type: physicochemical; conditions: grinded for 2 min and 5 min
Method: Physical treatment of Form I: Form I of meglumine salt was grinded for 2 min and 5 min. After grinding, the crystallinity declined, but the crystal form was still Form I.

[6] = compared with fulvestrant, GDC-0810 and AZD9496; cited from earlier work
ER+ breast cancer cells = conditions: cited from earlier work
[7] = Dynamic moisture sorption analysis (DVS); assay type: physicochemical
Method: Dynamic moisture sorption analysis (DVS): DVS was determined using IGAsorp (Hiden Isochema, UK). The sample was tested at a targeted RH (relative humidity) of 10 to 90% full cycle in step mode. The analysis was performed in 10% RH increments.

ER = target: T1, ER (Homo sapiens, UniProt P03372); conditions: intramuscular injection monthly; cited from earlier work
T1 sequence (P03372 1-595): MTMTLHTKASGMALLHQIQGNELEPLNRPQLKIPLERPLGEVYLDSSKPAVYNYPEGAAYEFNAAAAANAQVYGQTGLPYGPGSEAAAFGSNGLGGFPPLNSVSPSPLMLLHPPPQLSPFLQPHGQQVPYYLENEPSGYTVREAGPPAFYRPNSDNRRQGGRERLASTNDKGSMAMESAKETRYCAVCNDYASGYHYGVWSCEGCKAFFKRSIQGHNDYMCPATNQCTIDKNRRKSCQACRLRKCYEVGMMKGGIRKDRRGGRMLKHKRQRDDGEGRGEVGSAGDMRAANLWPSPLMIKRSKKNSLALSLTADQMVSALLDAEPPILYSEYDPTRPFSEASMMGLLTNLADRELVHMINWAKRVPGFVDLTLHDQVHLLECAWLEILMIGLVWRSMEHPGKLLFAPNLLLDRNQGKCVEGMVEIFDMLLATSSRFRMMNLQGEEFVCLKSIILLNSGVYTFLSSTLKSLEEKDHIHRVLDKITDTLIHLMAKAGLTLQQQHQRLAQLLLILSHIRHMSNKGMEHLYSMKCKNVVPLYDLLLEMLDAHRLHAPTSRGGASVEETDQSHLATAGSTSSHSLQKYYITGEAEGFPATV

Row | SMILES | Final crystal form ([1]; 25° C.) | Final crystal form ([1]; 60° C.) | Relative stability of crystal forms ([1]; in water at 60° C. and IPA) | XRPD analysis of remaining solids after solubility test [2] | Stability in pH 1.2 buffer solution (HPLC) ([2]; pH 1.2 buffer) | XRPD patterns at 24 h ([2]; pH 1.2 buffer) | XRPD patterns at 24 h ([2]; pH 6.8 buffer) | Physical and chemical stability [3] | XRPD patterns after storage [3] | Purity at 8 days [3] | Purity at 0 day [3] | Crystal form after storage (XRPD) [4] | Crystal form after grinding [5] | Crystallinity after grinding [5] | Human hepatocyte clearance [6] | Growth of ER+ breast cancer cells (ER+ breast cancer cells) | XRPD pattern after DVS test [7] | Moisture adsorbed (DVS) ([7]; at 80% RH) | ER degradation in clinical samples (ER)
1 | C[C@@H]1Cc2c([nH]c3ccccc23)[C@@H](c2c(Cl)cc(/C=C/C(=O)O)cc2Cl)N1CC(C)(C)F [Meglumine salt, Meglumine (E)-3-(3,5-dichloro-4-((1R,3R)-2-(2-fluoro-2-methylpropyl)-3-methyl-2,3,4,9-tetrahydro-1H-pyrido[3,4-b]indol-1-yl)phenyl)acrylate] | Dihydrate | Form I | most stable crystal form | became lower | unstable | No change | Low crystallinity | physically and chemically stable | not changed | 99.66 Area % | 99.68 Area % | remained unchanged | still Form I | declined |  |  |  |  | 
2 | C[C@@H]1Cc2c([nH]c3ccccc23)[C@@H](c2c(Cl)cc(/C=C/C(=O)O)cc2Cl)N1CC(C)(C)F [Compound FA, (E)-3-(3,5-dichloro-4-((1R,3R)-2-(2-fluoro-2-methylpropyl)-3-methyl-2,3,4,9-tetrahydro-1H-pyrido[3,4-b]indol-1-yl)phenyl)acrylic acid] |  |  |  | became lower | unstable | Low crystallinity | Low crystallinity | physically and chemically stable | not changed | 96.31 Area % | 98.02 Area % |  |  |  | better human hepatocyte clearance | inhibited the growth | didn't change | about 1.7% | 
3 | C[C@]12CC[C@@H]3c4ccc(O)cc4C[C@@H](CCCCCCCCC[S+]([O-])CCCC(F)(F)C(F)(F)F)[C@H]3[C@@H]1CC[C@@H]2O (stereo partly drawn) [fulvestrant] |  |  |  |  |  |  |  |  |  |  |  |  |  |  |  |  |  |  | ~50%
